US7326534B2, “Detection of gleevec resistant mutations” (Oregon Health and Science University, priority 2001, dated 2008)

Tested on: Src family kinases
Experiment: inhibition of tyrosine kinase
Type: biochemical
From the text: […]. […] […]. […] […]

SMILES: Cc1ccc(NC(=O)c2ccc(CN3CCN(C)CC3)cc2)cc1Nc1nccc(-c2cccnc2)n1 [STI571, N-[4-methyl-3-(4-pyridin-3-yl-pyrimidin-2-ylamino)-phenyl]-4-(4-methyl-piperazin-1-ylmethyl)-benzamide]
- inhibition of kinase (in words): not
